Results as given in patent publication US12410133B2, “Crystalline (r)-5-carbamoylpyridin-3-yl-2-methyl-4-(3-(trifluoromethoxy)benzyl)piperazine-1-carboxylate, compositions and methods of use thereof” (Celgene Corporation, priority 2018, dated 2025).
In brackets after ≈: the same amount, converted by molar mass.

How the values were obtained:
[1] = Solution stability test of Form A in physiologically relevant media at 37° C.; assay type: physicochemical; design: unit not given here
Experimental: A solution stability test of Form A was performed to assess substantial degradation of (R)-5-carbamoylpyridin-3-yl-2-methyl-4-(3-(trifluoromethoxy)benzyl)piperazine-1-carboxylate in physiologically relevant media. A solution of (R)-5-carbamoylpyridin-3-yl-2-methyl-4-(3-(trifluoromethoxy)benzyl)piperazine-1-carboxylate (1 mg/mL) was prepared in acetonitrile/water (50/50 v/v). Test medium (1990 μL) was added to a vial. Test media evaluated included buffers pH 1-8, simulated gastric fluid (SGF), fasted state simulated intestinal fluid (FaSSIF), and fed state simulated intestinal fluid (FeSSIF). Stock solution (10 μL) was added to the vial containing the medium. This mixture was stirred to mix well and transferred to a HPLC vial, which was placed in the autosampler maintained at 37° C. The vial was injected repeatedly every 4 hr for 24 hr.

[2] = Dynamic vapor sorption (DVS) of Form A; assay type: physicochemical
Experimental: Dynamic vapor sorption (DVS) was performed on a Surface Measurement Systems DVS Intrinsic. The relative humidity at 25° C. were calibrated against deliquescence point of LiCl, Mg(NO3)2, and KCl. Sample sizes were between 10-20 mg. Gas and flow rate was nitrogen, 200 mL/min; dm/dt: 0.002%/min.

[3] = physchem; conditions: thermodynamic from solid
[4] = pKa detection by Sirius T3; assay type: physicochemical; conditions: Sirius T3, range 2.0 to 12.0, in triplicate; read-out: Measured pKa value
Experimental: A summary of baseline solid state characterization results of crystalline (R)-5-carbamoylpyridin-3-yl-2-methyl-4-(3-(trifluoromethoxy)benzyl)piperazine-1-carboxylate Form A, including pKa, partition coefficient (log D7.4) measurement and 2-hrs equilibrium solubility in FaSSIF and FeSSIF (version 2) are provided herein. […] Log D7.4 was measured with the solvent system of pH 7.4 phosphate buffer and n-octanol by shake-flask method. Meanwhile, 2-hrs equilibrium solubility of (R)-5-carbamoylpyridin-3-yl-2-methyl-4-(3-(trifluoromethoxy)benzyl)piperazine-1-carboxylate in FaSSIF and FeSSIF (version 2) was measured to be 0.12 and 0.080 mg/mL.

[5] = Solubility of Form A in physiologically relevant media (37° C.); assay type: physicochemical
[6] = Competitive slurry study of forms A to E in water; assay type: physicochemical; conditions: room temperature, 7 days
Experimental: A competitive slurry study of all known forms A to E was performed in water at room temperature to understand the thermodynamic stability relationship among these forms. Form A was used to saturate the water before it was filtered to obtain a near-saturated solution. Equal amounts of each form (A to E) were weighed and then mixed with the prepared near-saturated solution to form a new suspension, which was stirred magnetically (˜1000 rpm) at room temperature for 7 days.

SMILES: C[C@@H]1CN(Cc2cccc(OC(F)(F)F)c2)CCN1C(=O)Oc1cncc(C(N)=O)c1 [Form A, (R)-5-carbamoylpyridin-3-yl-2-methyl-4-(3-(trifluoromethoxy)benzyl)piperazine-1-carboxylate]
- Solution chemical stability data ([1]; FaSSIF, 37° C., 0 hr): 100.0
- Solution chemical stability data ([1]; FaSSIF, 37° C., 4 hr): 100.6
- Solution chemical stability data ([1]; FaSSIF, 37° C., 8 hr): 100.2
- Solution chemical stability data ([1]; FaSSIF, 37° C., 12 hr): 100.5
- Solution chemical stability data ([1]; FaSSIF, 37° C., 16 hr): 100.3
- Solution chemical stability data ([1]; FaSSIF, 37° C., 20 hr): 100.0
- Solution chemical stability data ([1]; FaSSIF, 37° C., 24 hr): 100.0
- Solution chemical stability data ([1]; FeSSIF, 37° C., 0 hr): 100.0
- Solution chemical stability data ([1]; FeSSIF, 37° C., 4 hr): 99.6
- Solution chemical stability data ([1]; FeSSIF, 37° C., 8 hr): 100.2
- Solution chemical stability data ([1]; FeSSIF, 37° C., 12 hr): 99.7
- Solution chemical stability data ([1]; FeSSIF, 37° C., 16 hr): 99.6
- Solution chemical stability data ([1]; FeSSIF, 37° C., 20 hr): 99.8
- Solution chemical stability data ([1]; FeSSIF, 37° C., 24 hr): 99.7
- Solution chemical stability data ([1]; SGF, 37° C., 0 hr): 100.0
- Solution chemical stability data ([1]; SGF, 37° C., 4 hr): 100.2
- Solution chemical stability data ([1]; SGF, 37° C., 8 hr): 100.1
- Solution chemical stability data ([1]; SGF, 37° C., 12 hr): 99.2
- Solution chemical stability data ([1]; SGF, 37° C., 16 hr): 99.7
- Solution chemical stability data ([1]; SGF, 37° C., 20 hr): 100.4
- Solution chemical stability data ([1]; SGF, 37° C., 24 hr): 99.6
- Solution chemical stability data ([1]; pH = 1, 37° C., 0 hr): 100.0
- Solution chemical stability data ([1]; pH = 1, 37° C., 4 hr): 99.6
- Solution chemical stability data ([1]; pH = 1, 37° C., 8 hr): 100.3
- Solution chemical stability data ([1]; pH = 1, 37° C., 12 hr): 100.3
- Solution chemical stability data ([1]; pH = 1, 37° C., 16 hr): 99.9
- Solution chemical stability data ([1]; pH = 1, 37° C., 20 hr): 101.9
- Solution chemical stability data ([1]; pH = 1, 37° C., 24 hr): 100.5
- Solution chemical stability data ([1]; pH = 3, 37° C., 0 hr): 100.0
- Solution chemical stability data ([1]; pH = 3, 37° C., 4 hr): 99.8
- Solution chemical stability data ([1]; pH = 3, 37° C., 8 hr): 99.8
- Solution chemical stability data ([1]; pH = 3, 37° C., 12 hr): 98.5
- Solution chemical stability data ([1]; pH = 3, 37° C., 16 hr): 99.3
- Solution chemical stability data ([1]; pH = 3, 37° C., 20 hr): 99.6
- Solution chemical stability data ([1]; pH = 3, 37° C., 24 hr): 99.5
- Solution chemical stability data ([1]; pH = 5.0, 37° C., 0 hr): 100.0
- Solution chemical stability data ([1]; pH = 5.0, 37° C., 4 hr): 100.9
- Solution chemical stability data ([1]; pH = 5.0, 37° C., 8 hr): 101.7
- Solution chemical stability data ([1]; pH = 5.0, 37° C., 12 hr): 99.9
- Solution chemical stability data ([1]; pH = 5.0, 37° C., 16 hr): 100.7
- Solution chemical stability data ([1]; pH = 5.0, 37° C., 20 hr): 99.9
- Solution chemical stability data ([1]; pH = 5.0, 37° C., 24 hr): 99.6
- Solution chemical stability data ([1]; pH = 6.8, 37° C., 0 hr): 100.0
- Solution chemical stability data ([1]; pH = 6.8, 37° C., 4 hr): 100.2
- Solution chemical stability data ([1]; pH = 6.8, 37° C., 8 hr): 100.8
- Solution chemical stability data ([1]; pH = 6.8, 37° C., 12 hr): 100.1
- Solution chemical stability data ([1]; pH = 6.8, 37° C., 16 hr): 100.0
- Solution chemical stability data ([1]; pH = 6.8, 37° C., 20 hr): 99.6
- Solution chemical stability data ([1]; pH = 6.8, 37° C., 24 hr): 99.0
- Solution chemical stability data ([1]; pH = 8.0, 37° C., 0 hr): 100.0
- Solution chemical stability data ([1]; pH = 8.0, 37° C., 4 hr): 101.3
- Solution chemical stability data ([1]; pH = 8.0, 37° C., 8 hr): 100.5
- Solution chemical stability data ([1]; pH = 8.0, 37° C., 12 hr): 99.7
- Solution chemical stability data ([1]; pH = 8.0, 37° C., 16 hr): 100.1
- Solution chemical stability data ([1]; pH = 8.0, 37° C., 20 hr): 98.7
- Solution chemical stability data ([1]; pH = 8.0, 37° C., 24 hr): 99.4
- Form change after the DVS test (XRPD comparison) ([2]; 25° C., between 0 and 95% RH): no form change was observed
- Water uptake (DVS) ([2]; 25° C./80% RH): 0.05%
- solubility ([3]; organic solvent or mixture, Approximate solubility, 1,4-dioxane, RT): > 22000 µg/mL
- solubility ([3]; organic solvent or mixture, Approximate solubility, 2-MeTHF, RT): > 23000 µg/mL
- solubility ([3]; organic solvent or mixture, Approximate solubility, ACN, RT): > 24000 µg/mL
- solubility ([3]; organic solvent or mixture, Approximate solubility, Acetone, RT): > 17000 µg/mL
- solubility ([3]; organic solvent or mixture, Approximate solubility, Anisole, RT): > 20000 µg/mL
- solubility ([3]; organic solvent or mixture, Approximate solubility, CHCl3, RT): > 19000 µg/mL
- solubility ([3]; organic solvent or mixture, Approximate solubility, DCM, RT): > 19000 µg/mL
- solubility ([3]; organic solvent or mixture, Approximate solubility, DMSO, RT): > 20000 µg/mL
- solubility ([3]; organic solvent or mixture, Approximate solubility, EtOAc, RT): > 26000 µg/mL
- solubility ([3]; organic solvent or mixture, Approximate solubility, EtOH, RT): > 17000 µg/mL
- solubility ([3]; organic solvent or mixture, Approximate solubility, IPA, RT): > 24000 µg/mL
- solubility ([3]; organic solvent or mixture, Approximate solubility, IPAC, RT): > 21000 µg/mL
- solubility ([3]; organic solvent or mixture, Approximate solubility, MIBK, RT): > 24000 µg/mL
- solubility ([3]; organic solvent or mixture, Approximate solubility, MTBE, RT): 7700 to 11500 µg/mL (≈ 17.6 to 26.2 mM)
- solubility ([3]; organic solvent or mixture, Approximate solubility, MeOH, RT): > 23000 µg/mL
- solubility ([3]; organic solvent or mixture, Approximate solubility, NMP, RT): > 21000 µg/mL
- solubility ([3]; organic solvent or mixture, Approximate solubility, THF, RT): > 26000 µg/mL
- solubility ([3]; organic solvent or mixture, Approximate solubility, n-heptane, RT): < 900 µg/mL
- solubility ([3]; organic solvent or mixture, Approximate solubility, toluene, RT): 4500 to 6000 µg/mL (≈ 10.3 to 13.7 mM)
- solubility ([3]; water, Approximate solubility, H2O, RT): > 1000 µg/mL
- pKa [4]: 5.79
- solubility ([5]; HCl/NaCl buffer pH 1.0, simulated gastric fluid, thermodynamic from solid, pH 1.0 HCl/NaCl buffer, final measured pH 1.47): > 20000 µg/mL
- solubility ([5]; acetate buffer pH 4, aqueous buffer, thermodynamic from solid, pH 4 Acetate buffer, final measured pH 4.18): 696 µg/mL (≈ 1.59 mM)
- solubility ([5]; acetate buffer pH 5, aqueous buffer, thermodynamic from solid, pH 5 Acetate buffer, final measured pH 5.14): 91 µg/mL (≈ 0.208 mM)
- solubility ([5]; aqueous buffer, thermodynamic from solid, pH 4 (0.0001N HCl), final measured pH 7.78): 11 µg/mL (≈ 0.0251 mM)
- solubility ([5]; pH 4.9, aqueous buffer, thermodynamic from solid, pH 3 (0.001N HCl), final measured pH 4.90): 57 µg/mL (≈ 0.13 mM)
- solubility ([5]; pH 8.1, thermodynamic from solid, Water, final measured pH 8.10): 12 µg/mL (≈ 0.0274 mM)
- solubility ([5]; phosphate buffer pH 2.5, aqueous buffer, thermodynamic from solid, pH 2.5 Phosphate buffer, final measured pH 3.44): 4330 µg/mL (≈ 9.87 mM)
- solubility ([5]; phosphate buffer pH 3, pH 4.2, aqueous buffer, thermodynamic from solid, pH 3 Phosphae buffer, final measured pH 4.20): 1250 µg/mL (≈ 2.85 mM)
- solubility ([5]; phosphate buffer pH 6.8, aqueous buffer, thermodynamic from solid, pH 6.8 Phosphate buffer, final measured pH 6.88): 7 µg/mL (≈ 0.016 mM)
- solubility ([5]; phosphate buffer pH 8.0, pH 8.1, aqueous buffer, thermodynamic from solid, pH 8.0 Phosphate buffer, final measured pH 8.10): 5 µg/mL (≈ 0.0114 mM)
- solubility ([5]; simulated gastric fluid, thermodynamic from solid, SGF with pepsin, final measured pH 1.75): > 20000 µg/mL
- solubility ([5]; simulated gastric fluid, thermodynamic from solid, pH 1 (0.1N HCl), final measured pH 1.48): > 20000 µg/mL
- solubility ([5]; simulated gastric fluid, thermodynamic from solid, pH 2 (0.01N HCl), final measured pH 3.55): 3860 µg/mL (≈ 8.8 mM)
- solubility ([5]; thermodynamic from solid, FaSSIF, final measured pH 6.48): 146 µg/mL (≈ 0.333 mM)
- solubility ([5]; thermodynamic from solid, FeSSIF, final measured pH 5.17): 1020 µg/mL (≈ 2.32 mM)
- Thermodynamic stability relationship among forms A to E [6]: thermodynamically the most stable form
